“Also recorded” adds a separate entry of the source.
Experiments:
platelets = assay: Platelet adhesion to immobilized M.Ab.F11 (BCA protein assay); type: cell-based, human; details: for inhibition of the adhesion of platelets to immobilized M.Ab.F11: M.Ab.F11 150 ng/well; for inhibition in platelet adhesion assay (immobilized M.Ab.F11): FIG. 3 legend, concentration not given
Method: An adhesion assay, based on the determination of cell-derived protein using Bicinchoninic Acid (BCA) protein assay (Tuszynski et al. (1990) Anal. Biochem 184:189-191, incorporated herein by reference), was used for platelet adhesion to immobilized M.Ab.F11. Wells of a 96-well plate (Nunc-Immuno™ Plate, MaxiSorp™ Surface, flat bottomed) were incubated overnight at 4° C. with […] of a 1 mg/ml solution of M.Ab.F11. Wells were aspirated, washed, treated with TBS/1% BSA for 1 h at 37° C., and washed with TBS/0.1 mM MnCl2/0.1 mM CaCl2. Isolated platelet suspensions (100 μl) (3×10^8/ml) were added and plates were incubated at 37° C. for 90 min. Total platelet-associated protein was determined by dissolving the attached platelets directly with 100 μl BCA. Platelets were incubated at 37° C. for 2 h, and absorbance (595 nm) determined (Dynatech Laboratories, Chantilly, Va.).
The five peptides with sequences shown in Table 1 were tested also for their effects on the adhesion of platelets to immobilized M.Ab.F11 (applied at a concentration of 150 ng/well). […] Peptide 1 (SEQ ID NO: 1), added at 50 μM caused about 60% inhibition of the adhesion of platelets to immobilized M.Ab.F11, and with 500 μM of peptide 1 (SEQ ID NO: 1), about 70% inhibition was observed. Peptide 4 (SEQ ID NO: 4), at 50 μM, produced very little (10%) inhibition compared to peptide 1 (SEQ ID NO: 1) at similar concentrations. However, 500 μM of peptide 4 (SEQ ID NO: 4) produced approximately 70% inhibition in the adhesion of platelets to M.Ab.F11, similar to that observed with peptide 1 (SEQ ID NO: 1) at the same concentration.

human platelets [1] = assay: Potentiation by M.Ab.F11 of ADP-induced platelet aggregation (sub-threshold M.Ab.F11 plus ADP); type: cell-based; details: for inhibition of M.Ab.F11 plus ADP-induced platelet aggregation: M.Ab.F11 0.3 μg/ml, ADP 0.5 μM
Method: (§1) Whole blood was collected into the anticoagulant ACD (pH 4.6), as detailed (Kornecki et al. (1990) J. Biol. Chem., 265:10042-10048, incorporated herein by reference). Platelets were washed and isolated by differential centrifugation, and resuspended in a Tyrode-albumin (0.35%) solution buffered with 11.9 mM sodium bicarbonate (pH 7.35) in the presence of apyrase, heparin, and PGE1 (Id.). […] Platelet aggregation was measured in a Chronolog Whole Blood Lumi-Aggregometer (Chronolog Corp. Havertown, Pa.). […] The lowest concentration of each agonist which caused platelet aggregation was determined in these experiments for each donor on the day of blood collection.
Synthetic peptides according to published sequences of F11R were prepared.

human platelets [2] = assay: Potentiation by M.Ab.F11 of collagen-induced platelet aggregation; type: cell-based
Method: as §1
However, the addition of sub-threshold amounts of collagen and M.Ab.F11 triggered a full-blown platelet aggregation.

apoE KO mice = assay: Plaque formation in animal model of atherosclerosis (apoE KO mice); type: in vivo; details: for physical appearance of the animals (secondary consequences of atherosclerosis): 5 month period, Western-type diet, FIG. 7
Method: The results of an in-vivo study of the effects of F11R peptide 4D on plaque formation in an animal model of atherosclerosis (apoE knockout/KO mice) are discussed below. The atherosclerosis-prone apoE KO is a strain of mice that has been genetically engineered to develop cardiovascular disease. This genetic abnormality is manifested by the continuous development of atherosclerotic plaques from early age to adulthood, accompanied by deteriorating, sickly appearance.
The study was conducted on atherosclerosis prone apoE deficient (knock-out female mice of 6 weeks of age) of a C57BL/6 background. The mice were obtained from the Jackson Laboratory (Bar Harbor, Me.). Seven animals were injected daily with peptide 4D. In parallel, control groups, consisting of animals injected with water, the vehicle used to deliver peptide 4D, was maintained. All mice were fed a Western-type diet.
At pre-determined intervals of 3, 4 and 5 months of treatment, the aortae were dissected. Following the dissection of the aortae of all mice, morphometric analyses of lesion areas was performed on aortic arch sections stained with Harris hematoxylin-eosin. The total intimal lesion areas were quantified by taking the average of 6 sections spaced 30 μm apart, beginning at the base of the aortic root of each animal. Images were viewed and captured with a microscope (Nikon) equipped with a color video camera (Motic Images Plus 2.0) attached to a computerized imaging system with Image-J.
En face assays (to visualize the entire aorta) were conducted for comparison of the size and number of atherosclerotic plaques in treated and untreated animals using an Oil red O staining procedure, as shown in FIG. 9. […] FIG. 9B illustrates the differences in the number and size of plaques in animals following a 4-month period of injection with peptide 4D, comparing animals “P4, P5” treated with peptide 4D versus controls “H3, H4, H5”.
The proximal aortae of treated an untreated groups were also assessed by hematoxylin-eosin staining of the proximal aorta (root assay) for the size of the lesions/plaques and the necrotic core area within the proximal aorta. FIG. 10A illustrates the plaques and the size of the necrotic core area of animals treated or not treated with peptide 4D for a 3 month period.

human platelets [3] = assay: M.Ab.F11-induced platelet aggregation; type: cell-based; details: sF11R 1 μg/ml; M.Ab.F11 2.45 μg/ml; FIG. 1A
Method: as §1
The soluble polypeptide sF11R was tested in the platelet aggregation assay to determine its effect on the rate and extent of platelet aggregation.
The F11R/JAM-A receptor is constitutively expressed on the surface membrane of human platelets. Studies were carried out testing the effects of Fab fragments prepared from M.Ab.F11, i.e., on the M.Ab.F11-induced platelet aggregation that is triggered by M.Ab.F11 binding to F11R. It was determined that these Fab fragments interfered with the ability of the intact M.Ab.F11 antibody to activate platelets through the constitutively-expressed F11R.
As shown below, platelet aggregation was assayed in the presence of either 0.1 μg/ml (FIG. 4a), or 1.0 μg/ml (FIG. 4b). […]

[4] = peptide approximately 50-500 μM
[5] = collagen 0.5 μg/ml (sub-threshold), peptide concentration not given

EQDGSPPSEYTWFKD [peptide 5, F11R amino acids 128-142, control peptide]
inhibition of the adhesion of platelets to immobilized M.Ab.F11 (platelets; peptide 500 μM): did not cause significant inhibition
inhibition of M.Ab.F11 plus ADP-induced platelet aggregation (human platelets [1]; [4]): no inhibitory effects
inhibition of M.Ab.F11 plus ADP-induced platelet aggregation (human platelets [1]; peptide approximately 50-500 μM, listed as SEQ ID NO: 5): do not inhibit aggregation
block of potentiation by M.Ab.F11 of collagen-induced platelet aggregation (human platelets [2]; [5]): did not inhibit platelet aggregation

KSVTREDTGTYTC [peptide 4]
inhibition in platelet adhesion assay (immobilized M.Ab.F11) (platelets): inhibition
inhibition of the adhesion of platelets to immobilized M.Ab.F11 (platelets; peptide 50 μM): 10%
inhibition of the adhesion of platelets to immobilized M.Ab.F11 (platelets; peptide 500 μM): about 70%
inhibition of M.Ab.F11 plus ADP-induced platelet aggregation (human platelets [1]; peptide approximately 50 μM): completely block
inhibition of M.Ab.F11 plus ADP-induced platelet aggregation (human platelets [1]; peptide approximately 50 μM, listed as Peptide 4): completely inhibited aggregation
block of potentiation by M.Ab.F11 of collagen-induced platelet aggregation (human platelets [2]; [5]): completely blocked

SVTVHSSEPEVRIPENNPVKLSC [peptide 1, N-terminal peptide of F11R, amino acids 1-23]
inhibition in platelet adhesion assay (immobilized M.Ab.F11) (platelets): inhibition
inhibition of the adhesion of platelets to immobilized M.Ab.F11 (platelets; peptide 50 μM): about 60%
inhibition of the adhesion of platelets to immobilized M.Ab.F11 (platelets; peptide 500 μM): about 70%
inhibition of M.Ab.F11 plus ADP-induced platelet aggregation (human platelets [1]; peptide approximately 50 μM): completely inhibited
inhibition of M.Ab.F11 plus ADP-induced platelet aggregation (human platelets [1]; peptide approximately 50 μM, listed as Peptide 1): completely inhibited platelet aggregation
persistence of inhibition of M.Ab.F11 plus ADP-induced platelet aggregation (human platelets [1]; peptide approximately 50 μM, examined after a 12 h period): aggregation did not ensue
block of potentiation by M.Ab.F11 of collagen-induced platelet aggregation (human platelets [2]; [5]): completely blocked

SYEDRVTFLPTGITFKSVTRED [peptide 2, F11R amino acids 55-76, control peptide]
inhibition of the adhesion of platelets to immobilized M.Ab.F11 (platelets; peptide 500 μM): did not cause significant inhibition
inhibition of M.Ab.F11 plus ADP-induced platelet aggregation (human platelets [1]; [4]): no inhibitory effects
inhibition of M.Ab.F11 plus ADP-induced platelet aggregation (human platelets [1]; peptide approximately 50-500 μM, listed as SEQ ID NO: 2): do not inhibit aggregation

WKFDQGDTTRLVEYNNKITASY [peptide 3, F11R amino acids 35-56, control peptide]
inhibition of the adhesion of platelets to immobilized M.Ab.F11 (platelets; peptide 500 μM): did not cause significant inhibition
inhibition of M.Ab.F11 plus ADP-induced platelet aggregation (human platelets [1]; [4]): no inhibitory effects
inhibition of M.Ab.F11 plus ADP-induced platelet aggregation (human platelets [1]; peptide approximately 50-500 μM, listed as SEQ ID NO: 3): do not inhibit aggregation
block of potentiation by M.Ab.F11 of collagen-induced platelet aggregation (human platelets [2]; [5]): did not inhibit platelet aggregation

dKSVTdREDTGTYTC-CONH2 [peptide 4D]
size of the atherosclerotic plaques, en face assay (entire aorta, Oil red O) (apoE KO mice; 3, 4 and 5 month period of injection, FIG. 9D): decrease in the size of the atherosclerotic plaques
size of the plaque/lesion areas, proximal aorta (apoE KO mice; 3, 4 and 5 months of injections): significant decreases
size of the necrosis core area (NE) within the lesion (apoE KO mice; 3 month period of injection, FIG. 10C): significant decrease
physical appearance of the animals (secondary consequences of atherosclerosis) (apoE KO mice; apoE KO mice, daily injection): prevented the degeneration of the animal's appearance
physical appearance of the animals (secondary consequences of atherosclerosis) (apoE KO mice; apoE KO mice, daily injection, listed as F11R peptide 4D): diminishes the secondary consequences
loss of hair, itching/scratching and lesions on the skin (apoE KO mice; apoE KO mice, daily injection, FIG. 7C-F): not observed
rate and extent of atherosclerotic plaque formation in major arterial blood vessels (apoE KO mice; apoE KO mice, summary of FIGS. 8-10): significantly decreases
size of atherosclerotic plaques in the aortic arch (apoE KO mice; three, four and five months of injection, hematoxylin-eosin sections, FIG. 8): beneficial effects
size of the lesion area, proximal aorta (root assay) (apoE KO mice; treated for 3 months, *P<0.05, FIG. 10B): significant decrease

B1: sF11R: secreted recombinant F11R, extracellular portion (amino acids ser-1 to asn-208), His tag, from COS-7 cells (protein)
chain: SVTVHSSEPEVRIPENNPVKLSCAYSGFSSPRVEWKFDQGDTTRLVCYNNKITASYEDRVTFLPTGITFKSVTREDTGTYTCMVSEEGGNSYGEVKVKLIVLVPPSKPTVNIPSSATIGNRAVLTCSEQDGSPPSEYTWFKDGIVMPTNPKSTRAFSNSSYVLNPTTGELVFDPLSASDTGEYSCEARNGYGTPMTSNAVRMEAVERN
modifications: left off: small tags and cut ends
notes: secreted recombinant F11R, extracellular portion (amino acids ser-1 to asn-208), His tag, from COS-7 cells
block of potentiation by M.Ab.F11 of ADP-induced platelet aggregation (human platelets [1]; sF11R 1 μg/ml): completely blocked
block of potentiation by M.Ab.F11 of collagen-induced platelet aggregation (human platelets [2]; sF11R 1 μg/ml): completely blocked
inhibition of M.Ab.F11-induced platelet aggregation (human platelets [3]): effectively inhibited; also recorded: Inhibition

Reference: patent publication US9556235B2, “F11 receptor (F11R) antagonists as therapeutic agents” (The Research Foundation for The State University of New York, priority 2003, dated 2017)
